Laboratory results: US8524691B2, “Phosphonated rifamycins and uses thereof for the prevention and treatment of bone and joint infections” (The Medicines Company, priority 2008, dated 2013)
Values after ≈ are worked out from the molar mass of the structure shown. Read-outs that look alike come from different tables or passages of the source.

Columns and labels:
Format in all cases: cell-based
[1] = tested on: S. aureus ATCC 13709^A, Novobiocin and Rifampicin resistant variant; test: Antibacterial susceptibility (MIC), NCCLS broth microdilution
Description: (§1) Susceptibility of S. aureus strains to the known antibiotics and synthesized compounds was determined by following the guidelines set by NCCLS (M26-A). Compounds were diluted two-fold serially in DMSO and transferred to cation-adjusted Mueller Hinton broth (CAMHB; Becton Dickinson). 50 μL of compounds diluted in CAMHB was mixed with 100 μL of bacteria diluted in CAMHB in 96-well microtiter plates. The final concentration of micro-organisms in the assay was 5×10^5c.f.u. per mL and the final concentration of DMSO in the assay was 1.25%. Assays were set up in duplicate and incubated at 37° C. for 18 h. The lowest concentration of compound that inhibited visible growth was reported as the minimum inhibitory concentration (MIC).

S. aureus ATCC 29213 = test: as above
Description: as §1

S. aureus ATCC 13709 [2] = test: microbe, parasite or virus in culture; details: for Antibacterial activity (in words, from Table 1): S. aureus MIC
Description: as §1

S. aureus ATCC 13709 [3] = test: microbe, parasite or virus in culture; details: for Serum dependence of antibacterial activity (in words): MIC with versus without serum
Description: as §1
Susceptibility testing experiments were also carried out in the presence of serum. These experiments were carried out similar to the susceptibility testing with the following modifications. 75 μL of compounds diluted in CAMHB was mixed with 75 μL of bacteria diluted in 100% serum from any given source (commercial pooled mouse serum (MS) and human serum (HS), Equitech-Bio Inc.) or diluted in 8% purified human serum albumin (HSA) (Calbiochem). The final concentration of animal serum in the assay was 50% and the final concentration of purified human serum albumin in the assay was 4%; the concentrations of all other components were identical to those described for susceptibility testing.

| SMILES | Minimum inhibitory concentration, S. aureus ATCC 13709^A [1] | Minimum inhibitory concentration, S. aureus ATCC 29213 (S. aureus ATCC 29213; CAMHB, 37° C., 18 h) | Minimum inhibitory concentration, S. aureus ATCC 13709 (S. aureus ATCC 13709 [2]; CAMHB, 37° C., 18 h) | Antibacterial activity (in words, from Table 1) (S. aureus ATCC 13709 [2]) | Minimum inhibitory concentration, ATCC 13709 + 50% Human Serum (S. aureus ATCC 13709 [3]; 50% Human Serum) | Minimum inhibitory concentration, ATCC 13709 + 50% Mouse Serum (S. aureus ATCC 13709 [3]; 50% Mouse Serum) | Minimum inhibitory concentration, ATCC 13709 + 50% Rat Serum (S. aureus ATCC 13709 [3]; 50% Rat Serum) | Serum dependence of antibacterial activity (in words) (S. aureus ATCC 13709 [3]) | Minimum inhibitory concentration, S. aureus ATCC 29213 (S. aureus ATCC 29213) | Minimum inhibitory concentration, S. aureus ATCC 13709 (S. aureus ATCC 13709 [2]) | Minimum inhibitory concentration, ATCC 13709 + 50% Human Serum (S. aureus ATCC 13709 [3]) | Minimum inhibitory concentration, ATCC 13709 + 50% Mouse Serum (S. aureus ATCC 13709 [3]) | Minimum inhibitory concentration, ATCC 13709 + 50% Rat Serum (S. aureus ATCC 13709 [3]) |
| --- | --- | --- | --- | --- | --- | --- | --- | --- | --- | --- | --- | --- | --- |
| CO[C@H]1/C=C/O[C@@]2(C)Oc3c(C)c(O)c4c(c3C2=O)C2=NC3(CCN(CC(C)C)CC3)NC2=C(NC(=O)/C(C)=C\C=C\[C@H](C)[C@H](OC(=O)CN(CCCCC(P(=O)(O)O)P(=O)(O)O)CCOC(C)=O)[C@@H](C)[C@@H](O)[C@@H](C)[C@H](OC(C)=O)[C@@H]1C)C4=O [Compound 48b] | >128 µg/mL | 0.5 µg/mL (≈ 0.41 µM) | 0.25 µg/mL (≈ 0.205 µM) | very low MICs whether in the absence or in the presence of serum | 0.5 µg/mL | 0.25 µg/mL | 0.0625 µg/mL | – | – | – | – | – | – |
| CCCC(=O)OCCN(CCC(P(=O)(O)O)P(=O)(O)O)CC(=O)O[C@@H]1[C@@H](C)[C@@H](O)[C@@H](C)[C@H](OC(C)=O)[C@H](C)[C@@H](OC)/C=C/O[C@@]2(C)Oc3c(C)c(O)c4c(c3C2=O)C2=NC3(CCN(CC(C)C)CC3)NC2=C(NC(=O)/C(C)=C\C=C\[C@@H]1C)C4=O [Compound 52] | >128 µg/mL | 8 µg/mL (≈ 6.56 µM) | 4 µg/mL (≈ 3.28 µM) | – | 16 µg/mL | 2 µg/mL | 0.5 µg/mL | significant increase in antibacterial activity in serum | – | – | – | – | – |
| CCC(=O)Oc1ccc(P(=O)(O)CP(=O)(O)O)cc1C(C)(C)CC(=O)N[C@@H](Cc1ccccc1)C(=O)N(C)CC(=O)O[C@@H]1[C@@H](C)[C@@H](O)[C@@H](C)[C@H](OC(C)=O)[C@H](C)[C@@H](OC)/C=C/O[C@@]2(C)Oc3c(C)c(O)c4c(c3C2=O)C2=NC3(CCN(CC(C)C)CC3)NC2=C(NC(=O)/C(C)=C\C=C\[C@@H]1C)C4=O.CCN(CC)CC.CCN(CC)CC [Compound 128] | >128 µg/mL | – | – | near complete loss of activity | – | – | – | – | >128 µg/mL | >128 µg/mL | >128 µg/mL | >128 µg/mL | >128 µg/mL |
| CO[C@H]1/C=C/O[C@@]2(C)Oc3c(C)c(O)c4c(c3C2=O)C2=NC3(CCN(CC(C)C)CC3)NC2=C(NC(=O)/C(C)=C\C=C\[C@H](C)[C@H](OC(=O)CN(C)C(=O)NC(P(=O)(O)O)P(=O)(O)O)[C@@H](C)[C@@H](O)[C@@H](C)[C@H](OC(C)=O)[C@@H]1C)C4=O [Compound 140] | >128 µg/mL | 16 µg/mL (≈ 14.1 µM) | 16 µg/mL (≈ 14.1 µM) | – | 128 µg/mL | 32 µg/mL | 4 µg/mL | weak antibacterial activity does not show a serum dependence | – | – | – | – | – |
